The target of one assay is T1, H-2D^b (Mus musculus, UniProt P01899).
T1 sequence (P01899 25-362): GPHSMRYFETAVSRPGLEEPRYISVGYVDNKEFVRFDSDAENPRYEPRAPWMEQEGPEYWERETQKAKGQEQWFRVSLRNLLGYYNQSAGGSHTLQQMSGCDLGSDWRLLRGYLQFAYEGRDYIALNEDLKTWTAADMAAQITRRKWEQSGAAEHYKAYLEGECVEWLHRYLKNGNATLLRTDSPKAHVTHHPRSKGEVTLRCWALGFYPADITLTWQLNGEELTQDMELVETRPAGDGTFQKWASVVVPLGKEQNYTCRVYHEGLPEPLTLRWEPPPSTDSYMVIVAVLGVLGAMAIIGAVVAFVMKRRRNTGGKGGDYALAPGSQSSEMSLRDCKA
T1 sequence (P01887 21-119 partner): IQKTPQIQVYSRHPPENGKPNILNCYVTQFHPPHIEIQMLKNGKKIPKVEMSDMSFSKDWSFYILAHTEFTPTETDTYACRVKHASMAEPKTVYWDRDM
Briefly: biochemical. Format: binding.

The next assay addresses T2, H-2K^b (Mus musculus, UniProt P01901).
T2 sequence (P01901 22-369): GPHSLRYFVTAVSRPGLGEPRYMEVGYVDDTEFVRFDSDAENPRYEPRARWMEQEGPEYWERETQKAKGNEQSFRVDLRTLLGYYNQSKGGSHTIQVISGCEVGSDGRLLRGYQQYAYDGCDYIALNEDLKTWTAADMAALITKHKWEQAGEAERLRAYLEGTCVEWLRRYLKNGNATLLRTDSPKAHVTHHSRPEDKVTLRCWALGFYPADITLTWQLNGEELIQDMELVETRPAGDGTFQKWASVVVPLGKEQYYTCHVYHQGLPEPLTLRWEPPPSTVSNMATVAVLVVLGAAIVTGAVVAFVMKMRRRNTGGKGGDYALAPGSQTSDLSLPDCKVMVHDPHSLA
T2 sequence (P01887 21-119 partner): T1 sequence (P01887 21-119 partner)
Briefly: biochemical. Format: binding.

Another assay concerns splenic CD8^+ T cells. In kind it is in vivo, C57BL/6 mice. Conditions: for IFNg#: spleen; for CTL response, ICS: file clean_CTLresponse_ICS_new, tissue not given.
For assay [1], the target named is H-2b MHC class I (allele not given). The assay can be described thus: Classical competition assay of peptide binding to purified MHC; restricting allele not printed in the epitope label of this file. More on the design: species or system mouse. The note with it: epitope label without allele; file clean_file9_IC50; unit inferred.
[2] abbreviates: Measured IC50 of each peptide, H-2D^b.
The mark [3] stands for this setting: Measured IC50 of each peptide, H-2K^b.
Setting [4] is: 1st EXP, number of IFNg+ CD8 cells = IFNg% (w/o background) x CD8# 5103400, replicate Mouse 2.
The mark [5] stands for this setting: 1st EXP, number of IFNg+ CD8 cells = IFNg% (w/o background) x CD8# 5464800, replicate Mouse 3.
[6] abbreviates: 1st EXP, number of IFNg+ CD8 cells = IFNg% (w/o background) x CD8# 5668200, replicate Mouse 4.
[7] abbreviates: 1st EXP, number of IFNg+ CD8 cells = IFNg% (w/o background) x CD8# 5724000, replicate Mouse 5.
Setting [8] is: 1st EXP, number of IFNg+ CD8 cells = IFNg% (w/o background) x CD8# 6077000, replicate Mouse 1.
The mark [9] stands for this setting: 2nd EXP, number of IFNg+ CD8 cells per spleen (CD8# 2541000), Mouse 5.
Where [10] appears, read: 2nd EXP, number of IFNg+ CD8 cells per spleen (CD8# 2956300), Mouse 4.
The mark [11] stands for this setting: 2nd EXP, number of IFNg+ CD8 cells per spleen (CD8# 3816800), Mouse 1.
Where [12] appears, read: 2nd EXP, number of IFNg+ CD8 cells per spleen (CD8# 4765200), Mouse 3.
Where [13] appears, read: 2nd EXP, number of IFNg+ CD8 cells per spleen (CD8# 5219500), Mouse 2.
Setting [14] is: 2nd EXP, number of IFNg+ CD8 cells per spleen (CD8# 5392600), Mouse 6.
Where [15] appears, read: epitopes labelled Kb, file clean_file9_IC50, unit inferred, read-out: IC50.

The values below come from paper PMC6599079 (Nature Communications, 2019).

Like-named read-outs stand apart in the source and are kept apart here. Square brackets hold non-standard residues; d marks the D form. Ends that are not written are not given here. Met(O) = CS(=O)CC[C@H](N)C(=O)O

In general, IC50 refers to the concentration that gives 50% inhibition.

On to VYIEVLHL [PB2_227–234], for which the half-maximal inhibitory concentration (IC50) at H-2D^b (setting [2]) stood at 20900 nM; at H-2K^b (setting [3]), 2.8 nM.
Taken in the same sequence, the figures for `CSCC[C@H](NC(=O)[C@@H](NC(=O)[C@H](CCC(=O)O)NC(=O)[C@H](CCSC)NC(=O)[C@H](CC(N)=O)NC(=O)[C@H](CCC(=O)O)NC(=O)[C@H](CC(N)=O)NC(=O)[C@H](CO)NC(=O)[C@H](C)N)[C@@H](C)O)C(=O)O` [NP366–374] were 18 nM and greater than 40000 nM.
As to 2 (TLTSANHA[Met(O)]I) [compound 2], the “IFNg#” value is reported as 1002.82 with splenic CD8^+ T cells (setting [4]); 6300.91 in the assay on splenic CD8^+ T cells (setting [5]); 49270.8 with splenic CD8^+ T cells (setting [6]); 453.913 in the assay with splenic CD8^+ T cells (setting [7]); 8544.26 with splenic CD8^+ T cells (setting [8]); -2541 with splenic CD8^+ T cells (setting [9]). For the same molecule, the “IFNg#” value was 765.09 in the assay with splenic CD8^+ T cells (setting [10]); 334.733 with splenic CD8^+ T cells (setting [11]); 3334.69 in the assay on splenic CD8^+ T cells (setting [12]); 2635.85 in the assay on splenic CD8^+ T cells (setting [13]); -650.348 with splenic CD8^+ T cells (setting [14]).
As to SSLPYQNI [HA304–311], the IC50 on H-2D^b (setting [2]) is greater than 40000 nM; against H-2K^b (setting [3]), 4.7 nM.
The corresponding values for SQLKNNAKEI [HA467–476] are 173 nM and greater than 40000 nM.
Taken in the same sequence, the figures for MGLIYNRM [M1_128–135] were greater than 40000 nM and 92.6 nM.
For the molecule SGPDNGAVAVL [NA181–191], the IC50 at H-2D^b (setting [2]) worked out at 64 nM; at H-2K^b (setting [3]), 585 nM.
19 (CFKFDHL) [compound 19]: the “IFNg#” value is on record as 34310.2 with splenic CD8^+ T cells (setting [4]); 27968.8 in the assay on splenic CD8^+ T cells (setting [5]); 21326.6 in the assay on splenic CD8^+ T cells (setting [6]); 46581.9 in the assay on splenic CD8^+ T cells (setting [7]); 28197.3 with splenic CD8^+ T cells (setting [8]); 17050.1 with splenic CD8^+ T cells (setting [9]). For the same molecule, the “IFNg#” value in the assay on splenic CD8^+ T cells (setting [10]) turned out to be 2143.61; in the assay on splenic CD8^+ T cells (setting [11]), 22289; in the assay on splenic CD8^+ T cells (setting [12]), 7728.2; in the assay on splenic CD8^+ T cells (setting [13]) it was 8361.64; in the assay on splenic CD8^+ T cells (setting [14]), 5535.5.
With SGPDNGAVAV [NA181–190], the half-maximal inhibitory concentration (IC50) at H-2D^b (setting [2]) stood at 65 nM; on H-2K^b (setting [3]) it was 262 nM.
The corresponding values for LSLRNPILV [PB1-F2_62–70] are 18 nM and 12400 nM.
As for HA-41-49 (VTVTHSVNL), the “CTL response, ICS” value in the assay with splenic CD8^+ T cells (Mouse1) came out at 14900.8; in the assay with splenic CD8^+ T cells (Mouse2), 4695.13; with splenic CD8^+ T cells (Mouse3), 8913.09; with splenic CD8^+ T cells (Mouse4), 22267.5; in the assay with splenic CD8^+ T cells (Mouse5) it was 32844.3; with splenic CD8^+ T cells (Mouse11), 2884.36. The “CTL response, ICS” value in the assay on splenic CD8^+ T cells (Mouse12) is 3836.33; with splenic CD8^+ T cells (Mouse13), 2696.15; in the assay with splenic CD8^+ T cells (Mouse14), 546.324; in the assay with splenic CD8^+ T cells (Mouse15), 0; with splenic CD8^+ T cells (Mouse16), 865.512. In assay [1], this molecule registered an IC50 of 872 nM.
In the case of SSLENFRAYV [PA-224-233Db], the IC50 at H-2D^b (epitopes labelled Db, file clean_file9_IC50, unit inferred, read-out: IC50) was determined as 0.155 nM.
Regarding SSLENFRAYV [PA224–233], the figures for the 50% inhibitory concentration (IC50) at H-2D^b (setting [2]) and at H-2K^b (setting [3]) were 0.16 nM and 38 nM, respectively.
KNMEYDAV [PB1_653–660]: the IC50 against H-2D^b (setting [2]) is greater than 40000 nM; at H-2K^b (setting [3]), 156 nM.
As to SSYRRPVGI [PB1_703–711], the IC50 against H-2D^b (setting [2]) worked out at 29000 nM; on H-2K^b (setting [3]), 1.9 nM.
Taken in the same sequence, the figures for `CC[C@H](C)[C@H](NC(=O)[C@H](CC(N)=O)NC(=O)[C@@H](N)CCSC)C(=O)N[C@@H](CCC(N)=O)C(=O)N[C@@H](Cc1ccccc1)C(=O)N[C@H](C(=O)N[C@@H](C)C(=O)N[C@H](C(=O)O)C(C)C)[C@@H](C)O` [HA402–409] were 6180 nM and 3 nM.
Taken in the same sequence, the figures for AGLKNDLLENL [M1_227–237] were 5280 nM and 3310 nM.
Taken in the same sequence, the figures for VTVTHSVNL [HA41–49] were 872 nM and 7.9 nM.
For the molecule NGITNKVNTVI [HA389–399], the 50% inhibitory concentration (IC50) against H-2D^b (setting [2]) was found to be 118 nM; at H-2K^b (setting [3]), 22000 nM.
Taken in the same sequence, the figures for IGRFYIQM [NP36–43] were 3300 nM and 1.9 nM.
With SFQDILLRM [NS2_8–16], the IC50 at H-2D^b (setting [2]) stood at 10700 nM; on H-2K^b (setting [3]), 185 nM.
Take VYIEVLHL [PB2-227-234Kb]: the 50% inhibitory concentration (IC50) at H-2K^b (setting [15]) was found to be 2.77 nM.
On the same count and under the same terms, then SSYRRPVGI [PB1-703-711Kb], with 1.94 nM.
As to YQNIHPVTI [HA308–316], the IC50 against H-2D^b (setting [2]) is 1970 nM; against H-2K^b (setting [3]) it was 1140 nM.
Taken in the same sequence, the figures for RTFSFQLI [NS2_114–121] were greater than 40000 nM and 4.7 nM.
